Measurements published in patent US11161839B2, “2-quinolone derived inhibitors of BCL6” (Cancer Research Technology Limited, priority 2017, dated 2021).

Experiments:
[1] = biological target: BCL6-NCOR2(SMRT) corepressor protein-protein interaction (Homo sapiens (Human), UniProt P41182); assay: NanoBRET cell assay in transfected HEK293T cells; assay type: cell-based; conditions: further generated data (Table 2b); HEK293T cells, 6 hr; read-out: NanoBRET cell pIC50 (converted)
[2] = biological target: human BCL6 BTB domain (Trx-6xHis-BCL6) (Homo sapiens (Human), UniProt P41182); assay: HTRF in vitro assay (BCL6 BTB domain / BCOR-AF633 peptide); assay type: binding; conditions: for IC50: read-out: HTRF pIC50 (converted)
[3] = further generated data (Table 1b), 1 nM Trx-6xHis-BCL6, 0.5 nM anti-6xHis-Terbium cryptate

IC50 [1] [nM]	HTRF pIC50 [2, 3]	HTRF pIC50 ([2]; initially generated data (Table 1a), 10 nM Trx-6xHis-BCL6, 1 nM anti-6xHis-Terbium cryptate)	IC50 [2, 3] [nM]	Compound
1550	6.58	–	–	CC(Nc1cc(=O)n(C)c2ccc(Nc3cc(-n4cc(CCO)cn4)ncc3Cl)cc12)c1ncccn1 (stereo not shown) [Example 15i, 6-((5-chloro-2-(4-(2-hydroxyethyl)-1H-pyrazol-1-yl)pyridin-4-yl)amino)-1-methyl-4-((1-(pyrimidin-2-yl)ethyl)amino)quinoline-2(1H)-one]
6920	6.21	–	–	CC(Nc1cc(=O)n(C)c2ccc(Nc3cc(N4CCC(F)(F)CC4)ncc3Cl)cc12)c1ncccn1 (stereo not shown) [Example 15h, 6-((5-chloro-2-(4,4-difluoropiperidin-1-yl)pyridin-4-yl)amino)-1-methyl-4-((1-(pyrimidin-2-yl)ethyl)amino)quinolin-2(1H)-one]
479	7.46	–	–	CC(Nc1cc(=O)n(C)c2ccc(Nc3ccnc(Cl)c3C#N)cc12)c1ncc(-c2cccnc2)cn1 (stereo not shown) [Example 20, 2-chloro-4-((1-methyl-2-oxo-4-((1-(5-(pyridin-3-yl)pyrimidin-2-yl)ethyl)amino)-1,2-dihydroquinolin-6-yl)amino)nicotinonitrile]
4900	6.18	–	–	CC(Nc1cc(=O)n(C)c2ccc(Nc3nc(N4CC(C)(C#N)C4)ncc3Cl)cc12)c1ncccn1 (stereo not shown) [Example 17j, 1-(5-chloro-4-((1-methyl-2-oxo-4-((11-(pyrimidin-2-yl)ethyl)amino)-1,2-dihydroquinoline-6-yl)amino)pyrimidin-2-yl)-3-methylazetidine-3-carbonitrile]
550	7.78	–	–	Cn1c(=O)cc(NC(C)(C)c2ncccn2)c2cc(Nc3cc(C(=O)N4CCC4)nc(Cl)c3C#N)ccc21 [Example 8a, 6-(Azetidine-1-carbonyl)-2-chloro-4-((1-methyl-2-oxo-4-((2-(pyrimidin-2-yl)propan-2-yl)amino)-1,2-dihydroquinolin-6-yl)amino)nicotinonitrile]
2750	7.55	–	–	CN(C)C(=O)c1cc(Nc2ccc3c(c2)c(NC(C)(C)c2ncccn2)cc(=O)n3C)c(C#N)c(Cl)n1 [Example 19a, 6-chloro-5-cyano-N,N-dimethyl-4-((1-methyl-2-oxo-4-((2-(pyrimidin-2-yl)propan-2-yl)amino)-1,2-dihydroquinolin-6-yl)amino)picolinamide]
4170	6.20	–	–	CC(Nc1cc(=O)n(C)c2ccc(Nc3nc(N4CC5(CCOCC5)C4)ncc3Cl)cc12)c1ncccn1 (stereo not shown) [Example 17h, 6-((5-chloro-2-(7-oxa-2-azaspiro[3.5]nonan-2-yl)pyrimidin-4-yl)amino)-1-methyl-4((1-(pyrimidin-2-yl)ethyl)amino)quinolin-2(1H)-one:formic acid (1:1)]
525	7.51	7.44	–	CNC(=O)c1cc(Nc2ccc3c(c2)c(NC(C)(C)c2ncccn2)cc(=O)n3C)c(C#N)c(Cl)n1 [Example 1u, 6-chloro-5-cyano-N-methyl-4-[[1-methyl-4-[(1-methyl-1-pyrimidin-2-yl-ethyl)amino]-2-oxo-6-quinolyl]amino]pyridine-2-carboxamide]
4790	6.49	–	–	Cn1c(=O)cc(NC2(C#N)CC2)c2cc(Nc3ccnc(Cl)c3C#N)ccc21 [Example 24b, 2-chloro-4-((4-((1-cyanocyclopropyl)amino)-1-methyl-2-oxo-1,2-dihydroquinolin-6-yl)amino)nicotinonitrile]
2750	6.66	–	–	C[C@@H](Nc1nc(=O)n(C)c2ccc(Nc3ccnc(Cl)c3C#N)cc12)C1CC1 [Example 10m, (R)-2-chloro-4-((4-((1-cyclopropylethyl)amino)-1-methyl-2-oxo-1,2-dihydroquinazolin-6-yl)amino)nicotinonitrile]
1290	–	–	302	C[C@@H](Nc1cc(=O)n(C)c2ccc(Nc3nc(N4CCC(C(=O)N(C)C)CC4)ncc3Cl)cc12)C1CC1 [Example 12b, (R)-1-(5-chloro-4-((4-((1-cyclopropylethyl)amino)-1-methyl-2-oxo-1,2-dihydroquinolin-6-yl)amino)pyrimidin-2-y1)-N,N-dimethylpiperidine-4-carboxamide]
1820	6.09	–	–	C[C@@H](Nc1nc(=O)n(C)c2ccc(Nc3ccnc(Cl)c3Cl)cc12)C1CC1 [Example 6d, (R)-4-((1-cyclopropylethyl)amino)-6-((2,3-dichloropyridin-4-yl)amino)-1-methylquinazolin-2(1H)-one]
1290	6.55	–	–	C[C@@H](Nc1cc(=O)n(C)c2ccc(Nc3ccnc(Cl)c3C#N)cc12)C1CC1 [Example 10n, (R)-2-chloro-4-((4-((1-cyclopropylethyl)amino)-1-methyl-2-oxo-1,2-dihydroquinolin-6-yl)amino)nicotinonitrile]
2000	6.59	–	–	COC[C@@H]1CCCN1C(=O)c1cc(Nc2ccc3c(c2)c(N[C@H](C)C2CC2)cc(=O)n3C)c(Cl)cn1 [Example 15a, 6-((5-Chloro-2-((S)-2-(methoxymethyl)pyrrolidine-1-carbonyl)pyridin-4-yl)amino)-4-(((R)-1-cyclopropylethyl)amino)-1-methylquinolin-2(1H)-one]
3470	6.20	–	–	COc1ncc(Cl)c(Nc2ccc3c(c2)c(N[C@H](C)C2CC2)cc(=O)n3C)n1 [Example 11e]
7410	6.25	–	–	CC(Nc1cc(=O)n(CC2CC2)c2ccc(Nc3ccnc(Cl)c3Cl)cc12)c1ncccn1 (stereo not shown) [Example 6g, 1-(cyclopropylmethyl)-6-[(2,3-dichloro-4-pyridyl)amino]-4-(1-pyrimidin-2-ylethylamino)quinolin-2-one]
1510	6.82	–	–	CC(Nc1cc(=O)n(C)c2ccc(Nc3ccnc(Cl)c3C#N)cc12)c1ncc(N2C[C@H](C)C[C@H](C)C2)cn1 (stereo partly drawn) [Example 10k, 2-chloro-4-((4-((1-(5-((3R,5S)-3,5-dimethylpiperidin-1-yl)pyrimidin-2-yl)ethyl)amino)-1-methyl-2-oxo-1,2-dihydroquinolin-6-yl)amino)nicotinonitrile]
347	7.91	–	–	C[C@@H]1CN(c2cnc(C(C)(C)Nc3cc(=O)n(C)c4ccc(Nc5ccnc(Cl)c5C#N)cc34)nc2)C[C@H](C)O1 [Example 7a, 2-Chloro-4-((4-((2-(5-((2R,6S)-2,6-dimethylmorpholino)pyrimidin-2-yl)propan-2-yl)amino)-1-methyl-2-oxo-1,2-dihydroquinolin-6-yl)amino)nicotinonitrile]
1260	7.56	–	–	CC(Nc1cc(=O)n(C)c2ccc(Nc3ccnc(Cl)c3C#N)cc12)c1ncc(N2CCOCC2)cn1 (stereo not shown) [Example 10x, 2-chloro-4-((1-methyl-4-((1-(5-morpholinopyrimidin-2-yl)ethyl)amino)-2-oxo-1,2-dihydroquinolin-6-yl)amino)nicotinonitrile]
10000	6.54	–	–	COCC(C)(C)Nc1cc(=O)n(C)c2ccc(Nc3nc(-n4nc(C)cc4C)ncc3Cl)cc12 [Example 14e, 6-((5-chloro-2-(3,5-dimethyl-1H-pyrazol-1-yl)pyrimidin-4-yl)amino)-4-((1-methoxy-2-methylpropan-2-yl)amino)-1-methylquinolin-2(1H)-one]
2290	6.58	–	–	C[C@@H](Nc1cc(=O)n(C)c2ccc(Nc3cc(-n4cc(CCO)cn4)ncc3Cl)cc12)C1CC1 [Example 15f, (R)-6-((5-chloro-2-(4-(2-hydroxyethyl)-1H-pyrazol-1-yl)pyridin-4-yl)amino)-4-((1-cyclopropylethyl)amino)-1-methylquinolin-2(1H)-one]
1120	–	–	288	CNC(=O)c1cc(Nc2ccc3c(c2)c(NC(C)C2CC2)cc(=O)n3C)c(C#N)c(Cl)n1 (stereo not shown) [Example 7b, 6-chloro-5-cyano-4-((4-((1-cyclopropylethyl)amino)-1-methyl-2-oxo-1,2-dihydroquinolin-6-yl)amino)-N-methylpicolinamide]
1200	6.84	–	–	Cn1c(=O)cc(NC(C)(C)c2ncc(C3CC3)cn2)c2cc(Nc3ccnc(Cl)c3Cl)ccc21 [Example 6j, 4-((2-(5-cyclopropylpyrimidin-2-yl)propan-2-yl)amino)-6-((2,3-dichloropyridin-4-yl)amino)-1-methylquinolin-2(1H)-one]
4370	6.34	–	–	CC(Nc1cc(=O)n(C)c2ccc(Nc3ccnc(Cl)c3C#N)cc12)c1ccccn1 (stereo not shown) [Example 11d, 2-chloro-4-((1-methyl-2-oxo-4-((1-(pyridin-2-yl)ethyl)amino)-1,2-dihydroquinolin-6-yl)amino)nicotinonitrile: formic acid (1:1)]
1780	6.42	–	–	C[C@@H](Nc1cc(=O)n(C)c2ccc(Nc3cc(C(=O)N4CCC4)ncc3Cl)cc12)C1CC1 [Example 15d, (R)-6-((2-(azetidine-1-carbonyl)-5-chloropyridin-4-yl)amino)-4-((1-cyclopropylethyl)amino)-1-methylquinolin-2(1H)-one]

Compound	IC50 [1] [nM]	HTRF pIC50 [2, 3]	HTRF pIC50 ([2]; initially generated data (Table 1a), 10 nM Trx-6xHis-BCL6, 1 nM anti-6xHis-Terbium cryptate)	IC50 [2, 3] [nM]
Cn1c(=O)cc(NC(C)(C)c2ncc(C3CC3)cn2)c2cc(Nc3ccnc(Cl)c3C#N)ccc21 [Example 10a, 2-chloro-4-((4-((2-(5-cyclopropylpyrimidin-2-yl)propan-2-yl)amino)-1-methyl-2-oxo-1,2-dihydroquinolin-6-yl)amino)nicotinonitrile]	513	7.53	–	–
CC(Nc1cc(=O)n(CC2CC2)c2ccc(Nc3ccnc(Cl)c3C#N)cc12)c1ncccn1 (stereo not shown) [Example 11h, 2-chloro-4-((1-(cyclopropylmethyl)-2-oxo-4-((1-(pyrimidin-2-yl)ethyl)amino)-1,2-dihydroquinolin-6-yl)amino)nicotinonitrile]	2820	6.65	–	–
